Experimental data taken from paper PMC8829872 (Cancer chemotherapy and pharmacology, 2022).
Where two headings read alike, the source gives them in different places.

Assay: Extensive tissue distribution study in CT26 tumor-bearing mice
Assay type: in vivo, Balb/c mice
Conditions: Balb/c, mouse; for Tmax: read-out: Tmax (converted); for Cmax: read-out: Cmax
Method: Mice were injected subcutaneously on the right flank with 1x10^6 CT26 cells, a murine colorectal carcinoma cell line from BALB/c mice,obtained from ATCC (Manassas, VA). Cells were cultured in RPMI-1640 medium with L-glutamine (BioWhittaker Inc., Walkersville, MD), containing 10% heat-inactivated fetal bovine serum and 100 units of penicillin/mL and 100 μg/mL of streptomycin (Biofluids, BioSource, Rockville, MD) in an incubator with 95% air, 5% CO2, and 95% humidity at 37 °C. Cells were verified and checked for mycoplasm by IDEXX BioAnalytics (Westbrook, ME). Implantation and tumor growth were monitored twice weekly with a digital caliper. When tumors were approximately 200 mm^3, mice were stratified into time groups (N=3) primarily using body weight and secondarily using tumor size. Mice were administered 75 mg/kg PO through oral gavage. […] Bone marrow was obtained by flushing both femurs from each mouse with PBS, followed by centrifugation at 12,000 x g and removal of the supernatant. Protein analysis of the resuspended pellet was conducted using the Bio-Rad protein assay following the manufacturer’s instructions with bovine serum albumin as the standard. Blood was processed to obtain plasma and urine and feces were collected as described above.
For tissue and tumor analysis, samples were homogenized with 3 parts PBS (v/g) and further diluted with control plasma and concentrations determined from calibration curves prepared in control plasma.

[1] = 75 mg/kg PO, Draining Lymph Node
[2] = 75 mg/kg PO, Non-draining Lymph Node

Compound `C[C@@H]1COCCN1c1cc(C2([S@](C)(=N)=O)CC2)nc(-c2cc[nH]c3nccc2-3)n1` [AZD6738] has a half-life (75 mg/kg PO-ext, plasma) of 105 min, an AUC(0-t) (75 mg/kg PO-ext, plasma, read-out: AUC0-360 (converted)) of 39500 ng·h/mL and a Tmax (75 mg/kg PO-ext, plasma) of 15 min. The AUC(0-inf) (75 mg/kg PO, Bone Marrow) was 133000 ng·h/mL, the AUC(0-t) (75 mg/kg PO, Bone Marrow, 0-360 min, read-out: AUC0-t (converted)) was 133000 ng·h/mL and the Cmax (75 mg/kg PO, Bone Marrow) was 65800 ng/mL. The Tmax (75 mg/kg PO, Bone Marrow) was 30 min, the AUC(0-inf) (75 mg/kg PO, Brain) was 2100 ng·h/mL and the AUC(0-t) (75 mg/kg PO, Brain, 0-960 min, read-out: AUC0-t (converted)) was 2100 ng·h/mL. It also gave a Cmax (75 mg/kg PO, Brain) of 854 ng/mL, a Tmax (75 mg/kg PO, Brain) of 15 min and an AUC(0-inf) (75 mg/kg PO, CT26 Tumor) of 29600 ng·h/mL. For the same compound, the AUC(0-t) (75 mg/kg PO, CT26 Tumor, 0-1440 min, read-out: AUC0-t (converted)) was 29600 ng·h/mL, the Cmax (75 mg/kg PO, CT26 Tumor) was 10100 ng/mL and the Tmax (75 mg/kg PO, CT26 Tumor) was 30 min. For the same compound, the AUC(0-inf) [1] was 31300 ng·h/mL, the AUC(0-t) (75 mg/kg PO, Draining Lymph Node, 0-1440 min, read-out: AUC0-t (converted)) was 31200 ng·h/mL and the Cmax [1] was 12100 ng/mL. The Tmax [1] was 15 min, the AUC(0-inf) (75 mg/kg PO, Esophagus) was 129000 ng·h/mL and the AUC(0-t) (75 mg/kg PO, Esophagus, 0-1440 min, read-out: AUC0-t (converted)) was 129000 ng·h/mL. The Cmax (75 mg/kg PO, Esophagus) was 115000 ng/mL, the Tmax (75 mg/kg PO, Esophagus) was 5 min and the AUC(0-inf) (75 mg/kg PO, Fat) was 16300 ng·h/mL. It also gave an AUC(0-t) (75 mg/kg PO, Fat, 0-1440 min, read-out: AUC0-t (converted)) of 16300 ng·h/mL, a Cmax (75 mg/kg PO, Fat) of 9200 ng/mL and a Tmax (75 mg/kg PO, Fat) of 30 min. For the same compound, the AUC(0-inf) (75 mg/kg PO, Heart) was 45600 ng·h/mL, the AUC(0-t) (75 mg/kg PO, Heart, 0-1440 min, read-out: AUC0-t (converted)) was 45600 ng·h/mL and the Cmax (75 mg/kg PO, Heart) was 19400 ng/mL. It also gave a Tmax (75 mg/kg PO, Heart) of 15 min, an AUC(0-inf) (75 mg/kg PO, Liver) of 293000 ng·h/mL and an AUC(0-t) (75 mg/kg PO, Liver, 0-1440 min, read-out: AUC0-t (converted)) of 293000 ng·h/mL. For the same compound, the Cmax (75 mg/kg PO, Liver) was 114000 ng/mL, the Tmax (75 mg/kg PO, Liver) was 15 min and the AUC(0-inf) [2] was 38800 ng·h/mL. For the same compound, the AUC(0-t) (75 mg/kg PO, Non-draining Lymph Node, 0-1440 min, read-out: AUC0-t (converted)) was 38800 ng·h/mL, the Cmax [2] was 16100 ng/mL and the Tmax [2] was 15 min. It also gave an AUC(0-inf) (75 mg/kg PO, Small Intestine) of 332000 ng·h/mL, an AUC(0-t) (75 mg/kg PO, Small Intestine, 0-1440 min, read-out: AUC0-t (converted)) of 331000 ng·h/mL and a Cmax (75 mg/kg PO, Small Intestine) of 204000 ng/mL. The Tmax (75 mg/kg PO, Small Intestine) was 15 min, the AUC(0-inf) (75 mg/kg PO, Spinal Cord) was 2450 ng·h/mL and the AUC(0-t) (75 mg/kg PO, Spinal Cord, 0-1440 min, read-out: AUC0-t (converted)) was 2420 ng·h/mL. For the same compound, the Cmax (75 mg/kg PO, Spinal Cord) was 1010 ng/mL, the Tmax (75 mg/kg PO, Spinal Cord) was 15 min and the AUC(0-inf) (75 mg/kg PO, Spleen) was 35200 ng·h/mL. It also gave an AUC(0-t) (75 mg/kg PO, Spleen, 0-1440 min, read-out: AUC0-t (converted)) of 35200 ng·h/mL, a Cmax (75 mg/kg PO, Spleen) of 14200 ng/mL and a Tmax (75 mg/kg PO, Spleen) of 15 min. It also gave an AUC(0-inf) (75 mg/kg PO, Thymus) of 25800 ng·h/mL, an AUC(0-t) (75 mg/kg PO, Thymus, 0-1440 min, read-out: AUC0-t (converted)) of 25800 ng·h/mL and a Cmax (75 mg/kg PO, Thymus) of 9630 ng/mL. The Tmax (75 mg/kg PO, Thymus) was 5 min.
